Measured values from PMC10999543, “Identification of kinase modulators as host-directed therapeutics against intracellular methicillin-resistant Staphylococcus aureus” (Frontiers in Cellular and Infection Microbiology, 2024).
Where two headings read alike, the source gives them in different places.

How the values were obtained:
intracellular MRSA = format: cell-based, Staphylococcus aureus; settings: for %GFP+ rep 1 / z-scoreMRSA+ rep 1: replicate 1; for %GFP+ rep 2 / z-scoreMRSA+ rep 2: replicate 2; for %GFP+ rep 3 / z-scoreMRSA+ rep 3: replicate 3; for z-scoreMRSA+ mean: mean of 3 replicates; as to %GFP+ rep 1: test concentration or dose not given here; as to %GFP+ rep 2: test concentration or dose not given here; as to %GFP+ rep 3: test concentration or dose not given here; as to effect: test concentration or dose not given here; as to z-scoreMRSA+ mean: test concentration or dose not given here; as to z-scoreMRSA+ rep 1: test concentration or dose not given here; as to z-scoreMRSA+ rep 2: test concentration or dose not given here; as to z-scoreMRSA+ rep 3: test concentration or dose not given here
Method in brief: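 Values are z-scores: GFP-positive HeLa percentage and event count per well against plate statistics, minus the mean DMSO z-score. Wells deviating two-fold from controls were left out of plate means. Infection was at a mean MOI of 6.8, with an overnight compound exposure.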

HeLa cells = experiment: Compound screen by flow cytometry: HeLa cell count as surrogate readout of cell viability (z-scoreHeLa); format: cell-based, human; settings: for cell count rep 1 / z-scoreHeLa rep 1: replicate 1; for cell count rep 2 / z-scoreHeLa rep 2: replicate 2; for cell count rep 3 / z-scoreHeLa rep 3: replicate 3; for z-scoreHeLa mean: mean of 3 replicates; as to all read-outs here: test concentration or dose not given here
Method in brief: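 The viability surrogate was the count of fixed HeLa cells by flow cytometry, converted to z-scores against DMSO controls with values deviating two-fold excluded. Before counting, cells had been infected with MRSA for 1 h and cleared of extracellular bacteria with gentamicin. They were then exposed overnight to kinase inhibitors in triplicate.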

[1] = PKIS compounds raw data, MRSA-infected HeLa cells
[2] = Yes/No: effect without cell death
[3] = compound screen, MRSA-infected HeLa cells
[4] = PKIS compounds raw data, HeLa cell count
[5] = compound screen, HeLa cell count
[6] = PKIS compound screen raw data, MRSA-infected HeLa cells
[7] = PKIS compound screen, Yes/No call
[8] = PKIS compound screen, Yes/No call (effect without cell death)
[9] = PKIS compound screen raw data, HeLa cell count
[10] = PKIS compound screen, MRSA-infected HeLa cells
[11] = PKIS compound screen, Yes/No call on z-scoreMRSA+
[12] = PKIS compound screen, HeLa cell count
[13] = PKIS compound screen, Yes/No call on z-scoreHeLa

## Nc1ncc(-c2cccc(S(N)(=O)=O)c2)c2scc(-c3ccc(F)c(Cl)c3)c12 [GW856804X]
Intracellular MRSA; [1]
  %GFP+ rep 1: 11.3%
  %GFP+ rep 2: 12.3%
  %GFP+ rep 3: 12.2%
Intracellular MRSA; Yes/No call from z-scoreMRSA+
  effect: No
Intracellular MRSA; [2]
  hit: No
Intracellular MRSA; [3]
  z-scoreMRSA+ mean: -0.70
  z-scoreMRSA+ rep 1: -0.60
  z-scoreMRSA+ rep 2: -0.40
  z-scoreMRSA+ rep 3: -1.09
HeLa cells; [4]
  cell count rep 1: 4238
  cell count rep 2: 7246
  cell count rep 3: 7870
HeLa cells; Yes/No call from z-scoreHeLa
  cell death: No
HeLa cells; [5]
  z-scoreHeLa mean: 0.73
  z-scoreHeLa rep 1: -0.49
  z-scoreHeLa rep 2: 2.25
  z-scoreHeLa rep 3: 0.43

## N#Cc1ccc(CCNc2nccc(-c3cccc(CN4CCNCC4)c3)n2)cc1 [GSK2137462A]
Intracellular MRSA; [6]
  %GFP+ rep 1: 14.3%
  %GFP+ rep 2: 14.4%
  %GFP+ rep 3: 16.1%
Intracellular MRSA; [7]
  effect: No
Intracellular MRSA; [8]
  hit: No
Intracellular MRSA; PKIS compound screen
  z-scoreMRSA+ mean: -0.14
  z-scoreMRSA+ rep 1: -0.07
  z-scoreMRSA+ rep 2: -0.12
  z-scoreMRSA+ rep 3: -0.24
Intracellular MRSA; [1]
  %GFP+ rep 1: 26.7%
  %GFP+ rep 2: 25.4%
  %GFP+ rep 3: 26.0%
Intracellular MRSA; Yes/No call from z-scoreMRSA+
  effect: No
Intracellular MRSA; [2]
  hit: No
Intracellular MRSA; [3]
  z-scoreMRSA+ mean: -1.32
  z-scoreMRSA+ rep 1: -1.20
  z-scoreMRSA+ rep 2: -1.37
  z-scoreMRSA+ rep 3: -1.40
HeLa cells; [9]
  cell count rep 1: 48589
  cell count rep 2: 40019
  cell count rep 3: 40009
HeLa cells; [7]
  cell death: No
HeLa cells; PKIS compound screen
  z-scoreHeLa mean: 0.08
  z-scoreHeLa rep 1: -0.12
  z-scoreHeLa rep 2: 0.13
  z-scoreHeLa rep 3: 0.23
HeLa cells; [4]
  cell count rep 1: 5843
  cell count rep 2: 6203
  cell count rep 3: 5956
HeLa cells; Yes/No call from z-scoreHeLa
  cell death: No
HeLa cells; [5]
  z-scoreHeLa mean: 3.25
  z-scoreHeLa rep 1: 3.12
  z-scoreHeLa rep 2: 2.53
  z-scoreHeLa rep 3: 4.11

## CNc1nc(-c2ccc3c(N)n[nH]c3c2)cc(N2C[C@@H](C(=O)NC3CCCCC3)OC[C@H]2C)n1 [GSK2375584A]
Intracellular MRSA; [6]
  %GFP+ rep 1: 21.4%
  %GFP+ rep 2: 23.1%
  %GFP+ rep 3: 26.2%
Intracellular MRSA; Yes/No call from z-scoreMRSA+
  effect: No
Intracellular MRSA; [2]
  hit: No
Intracellular MRSA; [3]
  z-scoreMRSA+ mean: 1.02
  z-scoreMRSA+ rep 1: 0.70
  z-scoreMRSA+ rep 2: 1.01
  z-scoreMRSA+ rep 3: 1.36
HeLa cells; [9]
  cell count rep 1: 30717
  cell count rep 2: 29074
  cell count rep 3: 21029
HeLa cells; Yes/No call from z-scoreHeLa
  cell death: No
HeLa cells; [5]
  z-scoreHeLa mean: 0.38
  z-scoreHeLa rep 1: 0.09
  z-scoreHeLa rep 2: 0.65
  z-scoreHeLa rep 3: 0.41

## Cn1cc(C=C2C(=O)Nc3cccnc32)c2ccccc21 [GW441756X]
Intracellular MRSA; [7]
  effect: No
Intracellular MRSA; [8]
  hit: No
Intracellular MRSA; PKIS compound screen
  z-scoreMRSA+ mean: -0.68
  z-scoreMRSA+ rep 1: -0.28
  z-scoreMRSA+ rep 2: -0.47
  z-scoreMRSA+ rep 3: -1.30
Intracellular MRSA; [1]
  %GFP+ rep 1: 12.3%
  %GFP+ rep 2: 12.1%
  %GFP+ rep 3: 11.5%
HeLa cells; [7]
  cell death: No
HeLa cells; PKIS compound screen
  z-scoreHeLa mean: 0.63
  z-scoreHeLa rep 1: 0.06
  z-scoreHeLa rep 2: 0.32
  z-scoreHeLa rep 3: 1.49
HeLa cells; [4]
  cell count rep 1: 4844
  cell count rep 2: 4695
  cell count rep 3: 10080

## COc1ccc(Nc2nccc(N3CCC(NC(=O)Nc4cccc(C(C)=O)c4)C3)n2)cc1 (stereo not drawn) [GSK1379731A]
Intracellular MRSA; [6]
  %GFP+ rep 1: 20.9%
  %GFP+ rep 2: 21.1%
  %GFP+ rep 3: 24.3%
Intracellular MRSA; [10]
  z-scoreMRSA+ mean: 0.62
  z-scoreMRSA+ rep 1: 0.57
  z-scoreMRSA+ rep 2: 0.46
  z-scoreMRSA+ rep 3: 0.84
Intracellular MRSA; [7]
  effect: No
Intracellular MRSA; [8]
  hit: No
Intracellular MRSA; [11]
  effect: No
Intracellular MRSA; PKIS compound screen
  z-scoreMRSA+ mean: 0.32
  z-scoreMRSA+ rep 1: 0.53
  z-scoreMRSA+ rep 2: 0.41
  z-scoreMRSA+ rep 3: 0.00589
Intracellular MRSA; [1]
  %GFP+ rep 1: 29.8%
  %GFP+ rep 2: 28.2%
  %GFP+ rep 3: 27.3%
HeLa cells; [9]
  cell count rep 1: 33897
  cell count rep 2: 29436
  cell count rep 3: 19502
HeLa cells; [12]
  z-scoreHeLa mean: 0.48
  z-scoreHeLa rep 1: 0.63
  z-scoreHeLa rep 2: 0.71
  z-scoreHeLa rep 3: 0.11
HeLa cells; [7]
  cell death: No
HeLa cells; [13]
  cell death: No
HeLa cells; PKIS compound screen
  z-scoreHeLa mean: 1.12
  z-scoreHeLa rep 1: 1.44
  z-scoreHeLa rep 2: 1.25
  z-scoreHeLa rep 3: 0.66
HeLa cells; [4]
  cell count rep 1: 8450
  cell count rep 2: 7898
  cell count rep 3: 6635

## O=C(O[C@H]1CN[C@H](C#Cc2cc3ncnc(Nc4ccc5c(cnn5Cc5ccccc5)c4)c3s2)C1)N1CCOCC1 [GSK200398A]
Intracellular MRSA; [6]
  %GFP+ rep 1: 12.7%
  %GFP+ rep 2: 13.5%
  %GFP+ rep 3: 14.0%
Intracellular MRSA; [10]
  z-scoreMRSA+ mean: -1.64
  z-scoreMRSA+ rep 1: -1.64
  z-scoreMRSA+ rep 2: -1.51
  z-scoreMRSA+ rep 3: -1.76
Intracellular MRSA; [8]
  hit: No
Intracellular MRSA; [11]
  effect: No
HeLa cells; [9]
  cell count rep 1: 22424
  cell count rep 2: 29797
  cell count rep 3: 30147
HeLa cells; [12]
  z-scoreHeLa mean: -0.74
  z-scoreHeLa rep 1: 0.35
  z-scoreHeLa rep 2: -0.93
  z-scoreHeLa rep 3: -1.65
HeLa cells; [13]
  cell death: No

## Cc1cccc(-c2nc(Nc3cccc(C(N)=O)c3)c3ccccc3n2)n1 [GW876019X]
Intracellular MRSA; [6]
  %GFP+ rep 1: 11.7%
  %GFP+ rep 2: 12.9%
  %GFP+ rep 3: 16.0%
Intracellular MRSA; [10]
  z-scoreMRSA+ mean: -1.70
  z-scoreMRSA+ rep 1: -1.89
  z-scoreMRSA+ rep 2: -1.78
  z-scoreMRSA+ rep 3: -1.43
Intracellular MRSA; [7]
  effect: No
Intracellular MRSA; [8]
  hit: No
Intracellular MRSA; [11]
  effect: No
Intracellular MRSA; PKIS compound screen
  z-scoreMRSA+ mean: 0.49
  z-scoreMRSA+ rep 1: 0.42
  z-scoreMRSA+ rep 2: 0.20
  z-scoreMRSA+ rep 3: 0.84
Intracellular MRSA; [1]
  %GFP+ rep 1: 29.2%
  %GFP+ rep 2: 27.1%
  %GFP+ rep 3: 31.8%
HeLa cells; [9]
  cell count rep 1: 25839
  cell count rep 2: 10617
  cell count rep 3: 8442
HeLa cells; [12]
  z-scoreHeLa mean: -1.76
  z-scoreHeLa rep 1: -0.74
  z-scoreHeLa rep 2: -2.51
  z-scoreHeLa rep 3: -2.04
HeLa cells; [7]
  cell death: No
HeLa cells; [13]
  cell death: No
HeLa cells; PKIS compound screen
  z-scoreHeLa mean: -1.99
  z-scoreHeLa rep 1: -2.12
  z-scoreHeLa rep 2: -2.54
  z-scoreHeLa rep 3: -1.32
HeLa cells; [4]
  cell count rep 1: 2511
  cell count rep 2: 2183
  cell count rep 3: 3514

## CNC(=O)c1cc(-c2ccc(F)cc2)cc(-c2ccc(S(=O)(=O)N3CCCC3)cc2)c1N [GSK635416A]
Intracellular MRSA; [7]
  effect: No
Intracellular MRSA; [8]
  hit: No
Intracellular MRSA; PKIS compound screen
  z-scoreMRSA+ mean: -0.63
  z-scoreMRSA+ rep 1: -0.38
  z-scoreMRSA+ rep 2: -0.50
  z-scoreMRSA+ rep 3: -1.00
Intracellular MRSA; [1]
  %GFP+ rep 1: 12.0%
  %GFP+ rep 2: 12.0%
  %GFP+ rep 3: 12.5%
HeLa cells; [7]
  cell death: No
HeLa cells; PKIS compound screen
  z-scoreHeLa mean: -0.10
  z-scoreHeLa rep 1: -0.27
  z-scoreHeLa rep 2: 0.000722
  z-scoreHeLa rep 3: -0.04
HeLa cells; [4]
  cell count rep 1: 4473
  cell count rep 2: 4269
  cell count rep 3: 6877

## O=C(Nc1n[nH]c2cc(-c3ccccc3)ccc12)C1CC1 [SB-732941]
Intracellular MRSA; [7]
  effect: No
Intracellular MRSA; [8]
  hit: No
Intracellular MRSA; PKIS compound screen
  z-scoreMRSA+ mean: -0.19
  z-scoreMRSA+ rep 1: -0.15
  z-scoreMRSA+ rep 2: 0.30
  z-scoreMRSA+ rep 3: -0.74
Intracellular MRSA; [1]
  %GFP+ rep 1: 12.7%
  %GFP+ rep 2: 14.4%
  %GFP+ rep 3: 13.4%
HeLa cells; [7]
  cell death: No
HeLa cells; PKIS compound screen
  z-scoreHeLa mean: 0.28
  z-scoreHeLa rep 1: 0.15
  z-scoreHeLa rep 2: 0.37
  z-scoreHeLa rep 3: 0.31
HeLa cells; [4]
  cell count rep 1: 4945
  cell count rep 2: 4760
  cell count rep 3: 7601

## CN(c1ccc(NC(=O)Nc2cccc(Cl)c2)cc1)c1ccnc(N)n1 [GW830707A]
Intracellular MRSA; [6]
  %GFP+ rep 1: 21.9%
  %GFP+ rep 2: 21.1%
  %GFP+ rep 3: 22.8%
Intracellular MRSA; Yes/No call from z-scoreMRSA+
  effect: No
Intracellular MRSA; [2]
  hit: No
Intracellular MRSA; [3]
  z-scoreMRSA+ mean: -0.32
  z-scoreMRSA+ rep 1: -0.79
  z-scoreMRSA+ rep 2: -0.37
  z-scoreMRSA+ rep 3: 0.18
HeLa cells; [9]
  cell count rep 1: 2862
  cell count rep 2: 2838
  cell count rep 3: 4346
HeLa cells; Yes/No call from z-scoreHeLa
  cell death: No
HeLa cells; [5]
  z-scoreHeLa mean: -0.92
  z-scoreHeLa rep 1: -1.07
  z-scoreHeLa rep 2: -1.13
  z-scoreHeLa rep 3: -0.56
